The values that follow come from PMC11786100, “Chronic GIPR agonism results in pancreatic islet GIPR functional desensitisation” (Molecular Metabolism, 2025).

For one test, the target named is T1, mouse SNAP-tagged GIPR (Mus musculus, UniProt Q0P543).
T1 construct: host or cells: AD-293
T1 sequence (Q0P543 19-460): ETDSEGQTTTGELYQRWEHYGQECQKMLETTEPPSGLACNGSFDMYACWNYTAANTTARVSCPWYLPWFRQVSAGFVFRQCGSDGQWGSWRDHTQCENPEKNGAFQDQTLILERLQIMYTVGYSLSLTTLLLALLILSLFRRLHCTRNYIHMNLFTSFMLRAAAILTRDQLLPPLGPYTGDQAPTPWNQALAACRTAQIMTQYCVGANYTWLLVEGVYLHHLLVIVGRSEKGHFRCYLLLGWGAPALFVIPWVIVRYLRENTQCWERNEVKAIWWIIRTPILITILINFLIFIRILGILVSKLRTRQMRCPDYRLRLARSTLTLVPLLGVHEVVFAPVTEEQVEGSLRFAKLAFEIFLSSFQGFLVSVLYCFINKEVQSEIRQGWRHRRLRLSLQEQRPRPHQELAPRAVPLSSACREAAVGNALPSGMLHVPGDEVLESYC
Kind of test: β-arrestin-2 activation assay (Borealis sensor) in AD-293 cells. The class given is cell-based. The following applies: 1 μM, 30-minute stimulation, n = 5–6.

Another test has as its system β2-adrenergic receptor. Kind of test: Ex vivo islet heterologous desensitisation, isoproterenol rechallenge cAMP. It counts as cell-based, mouse. The following applies: 24-hour pre-treatment with GIP108 (1 μM); dispersed islets, cADDis, n=3. As to the method: Primary cultures of mouse hypothalamic neurons and dispersed pancreatic islets were transduced with the Green Up cADDis biosensor (Montana Molecular, US). Pancreatic islets from CAMPER^Pdx−1-CreERT2 and CAMPER^Som-Cre mice were not transduced. Cells were pre-treated with peptides as specified, dissolved in culture media. Following 4 h or overnight incubation and a 1-hour washout period, cells were imaged using an epifluorescence microscope at baseline (t = 3 min), following peptide addition (t = 10 min, unless specified otherwise), and following 3-isobutyl-1-methylxanthine (IBMX) (500 μM) and forskolin (FSK) (50 μM) addition (t = 3 min) to maximally stimulate the sensor. In pre-treatment experiments, islet cell fluorescence was normalised to the IBMX/FSK response which was set as 100%. In non-pre-treatment experiments, islet and neuronal cell fluorescence was normalised to both the baseline and IBMX/FSK response. The area-under-the-curve (AUC) for each cell was quantified. […]
cAMP quantification from the raw islet/neuronal images was performed using Fiji v1.54f (NIH). […] The fluorescence intensity of each ROI was measured at each time point. In pre-treatment experiments, islet cell fluorescence was normalised to the maximal IBMX/FSK response which was set as 100%. […] The AUC during peptide stimulation for each cell was quantified. […]

In a further test the target is T2, mouse SNAP-tagged GLP-1R (Mus musculus, UniProt O35659).
T2 construct: host or cells: AD-293
T2 sequence (O35659 22-463): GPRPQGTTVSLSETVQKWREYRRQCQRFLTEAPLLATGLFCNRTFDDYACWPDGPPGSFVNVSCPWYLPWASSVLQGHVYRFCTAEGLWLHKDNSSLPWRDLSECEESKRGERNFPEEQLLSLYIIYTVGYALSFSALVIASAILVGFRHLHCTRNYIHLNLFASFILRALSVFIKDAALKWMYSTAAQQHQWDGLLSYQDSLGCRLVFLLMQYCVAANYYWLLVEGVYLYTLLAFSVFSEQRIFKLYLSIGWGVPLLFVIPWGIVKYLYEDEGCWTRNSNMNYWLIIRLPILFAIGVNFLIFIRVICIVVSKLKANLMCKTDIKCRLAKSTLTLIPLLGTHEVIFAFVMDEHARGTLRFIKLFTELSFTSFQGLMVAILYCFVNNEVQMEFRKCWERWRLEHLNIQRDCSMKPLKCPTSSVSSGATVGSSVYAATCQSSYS
The test is described as follows: β-arrestin-2 activation assay (Borealis sensor) in AD-293 cells. The class given is cell-based. The following applies: 10 nM, 30-minute stimulation, n = 5–6. Here is the method: AD-293 cells were transfected with desired plasmid DNA encoding a SNAP-tagged GPCR alongside transduction of Bacmam viral particles encoding the Borealis β-arrestin-2 sensor (Montana Molecular, US) and GRK5 (Montana Molecular, US) 24 h prior to assay. Cells were labelled for 10 min with BG-S-S-649 and imaged at baseline and for 30 min following peptide stimulation. Borealis arrestin sensor fluorescence in BG-S-S-649 labelled cells (representing GPCR expressing cells) was quantified and expressed as a % change from baseline. Full details are provided in the supplementary methods.
AD-293 cells were added to a 96-well plate and maintained in 200 μL complete DMEM. […]
Cells were labelled with cleavable SNAP-tag probe BG-S-S-649 in complete DMEM for 10 minutes prior to washing and imaging. […] Cells were imaged at baseline, registering both BG-S-S-649 fluorescence and borealis arrestin sensor fluorescence. Borealis arrestin sensor fluorescence was then imaged for 30 minutes after peptide addition in intervals of 5 minutes. Borealis arrestin sensor fluorescence in BG-S-S-649 labelled cells was quantified using Fiji v1.54f (NIH) and expressed as a % change from baseline.

Procedure for mouse SNAP-tagged GIPR: AD-293 cells were added to a 96-well plate and maintained in 200 μL complete DMEM. 150 ng of mouse or human SNAP-tagged plasmid GIPR or GLP-1R DNA, 2 μL of Borealis β-arrestin-2 sensor (Montana Molecular, US) and 2 μL of GRK5 (Montana Molecular, US) was added to each well alongside Lipofectamine 2000 and left for 24 hours.

As to `CC[C@H](C)[C@H](NC(=O)[C@H](CO)NC(=O)[C@H](Cc1ccc(O)cc1)NC(=O)[C@H](CC(=O)O)NC(=O)[C@H](CO)NC(=O)[C@@H](NC(=O)[C@H](Cc1ccccc1)NC(=O)[C@@H](NC(=O)CNC(=O)[C@H](CCC(=O)O)NC(=O)C(C)(C)NC(=O)[C@@H](N)Cc1ccc(O)cc1)[C@@H](C)O)[C@@H](C)CC)C(=O)N[C@@H](C)C(=O)N[C@@H](CC(C)C)C(=O)N[C@@H](CC(=O)O)C(=O)N[C@@H](CCCCN)C(=O)N[C@H](C(=O)N[C@@H](Cc1c[nH]cn1)C(=O)N[C@@H](CCC(N)=O)C(=O)N[C@@H](CCC(N)=O)C(=O)N[C@@H](CC(=O)O)C(=O)N[C@@H](Cc1ccccc1)C(=O)N[C@H](C(=O)N[C@@H](CC(N)=O)C(=O)N[C@@H](Cc1c[nH]c2ccccc12)C(=O)N[C@@H](CC(C)C)C(=O)N[C@@H](CC(C)C)C(=O)N[C@@H](C)C(=O)N[C@@H](CCC(N)=O)C(=O)N[C@@H](CCCCN)C(=O)NCC(=O)N[C@@H](CCCCNC(=O)CC[C@H](NC(=O)CCCCCCCCCCCCCCCCCCC(=O)O)C(=O)O)C(=O)N[C@@H](CCCCN)C(=O)N[C@@H](CC(N)=O)C(=O)N[C@@H](CC(=O)O)C(=O)N[C@@H](Cc1c[nH]c2ccccc12)C(=O)N[C@@H](CCCCN)C(=O)N[C@@H](Cc1c[nH]cn1)C(=O)N[C@@H](CC(N)=O)C(=O)N[C@H](C(=O)N[C@H](C(=O)N[C@@H](CCC(N)=O)C(=O)O)[C@@H](C)O)[C@@H](C)CC)C(C)C)[C@@H](C)CC` [GIP108], the “β-arrestin-2 activation compared to vehicle control” value on mouse SNAP-tagged GIPR is given as “neither hGIP (1 μM) nor GIP108 (1 μM) resulted in significant increases”. The “cAMP response to isoproterenol (1 μM) after GIP108 pre-treatment” value in the test on β2-adrenergic receptor is “remained intact”.

For the molecule GLP-1(7–36)·NH2, at mouse SNAP-tagged GLP-1R, the “β-arrestin-2 activation compared to vehicle control” value is recorded as “significant β-arrestin-2 activation”.
